Source: ChEMBL document CHEMBL3600363, “Discovery of potent, selective small molecule inhibitors of α-subtype of type III phosphatidylinositol-4-kinase (PI4KIIIα)” (Bioorg Med Chem Lett, 2015)

How the values were obtained:
[1] = biological target: Phosphatidylinositol 4-kinase alpha (Homo sapiens, UniProt P42356); assay: Inhibition of N-terminal FLAG-tagged human full length recombinant PI4K3alpha using D-myo-phosphatidylinositol substrate and ATP incubated for 45 mins by ADP-Glo kinase Assay
[2] = biological target: Phosphatidylinositol 4-kinase beta (Homo sapiens, UniProt Q9UBF8); assay: Inhibition of N-terminal GST-tagged human full length recombinant PI4K3beta expressed in Sf9 cells using D-myo-phosphatidylinositol substrate and ATP incubated for 45 mins by ADP-Glo kinase Assay
[3] = biological target: Phosphatidylinositol 4,5-bisphosphate 3-kinase catalytic subunit gamma isoform (Homo sapiens, UniProt P48736); assay: Inhibition of PI3Kgamma (unknown origin) pre-incubated for 20 mins before phosphatidylinositol 4, 5-bisphosphate substrate addition by kinase-glo plus luminescence assay
Sequence of Phosphatidylinositol 4,5-bisphosphate 3-kinase catalytic subunit gamma isoform (P48736 whole entry, canonical isoform): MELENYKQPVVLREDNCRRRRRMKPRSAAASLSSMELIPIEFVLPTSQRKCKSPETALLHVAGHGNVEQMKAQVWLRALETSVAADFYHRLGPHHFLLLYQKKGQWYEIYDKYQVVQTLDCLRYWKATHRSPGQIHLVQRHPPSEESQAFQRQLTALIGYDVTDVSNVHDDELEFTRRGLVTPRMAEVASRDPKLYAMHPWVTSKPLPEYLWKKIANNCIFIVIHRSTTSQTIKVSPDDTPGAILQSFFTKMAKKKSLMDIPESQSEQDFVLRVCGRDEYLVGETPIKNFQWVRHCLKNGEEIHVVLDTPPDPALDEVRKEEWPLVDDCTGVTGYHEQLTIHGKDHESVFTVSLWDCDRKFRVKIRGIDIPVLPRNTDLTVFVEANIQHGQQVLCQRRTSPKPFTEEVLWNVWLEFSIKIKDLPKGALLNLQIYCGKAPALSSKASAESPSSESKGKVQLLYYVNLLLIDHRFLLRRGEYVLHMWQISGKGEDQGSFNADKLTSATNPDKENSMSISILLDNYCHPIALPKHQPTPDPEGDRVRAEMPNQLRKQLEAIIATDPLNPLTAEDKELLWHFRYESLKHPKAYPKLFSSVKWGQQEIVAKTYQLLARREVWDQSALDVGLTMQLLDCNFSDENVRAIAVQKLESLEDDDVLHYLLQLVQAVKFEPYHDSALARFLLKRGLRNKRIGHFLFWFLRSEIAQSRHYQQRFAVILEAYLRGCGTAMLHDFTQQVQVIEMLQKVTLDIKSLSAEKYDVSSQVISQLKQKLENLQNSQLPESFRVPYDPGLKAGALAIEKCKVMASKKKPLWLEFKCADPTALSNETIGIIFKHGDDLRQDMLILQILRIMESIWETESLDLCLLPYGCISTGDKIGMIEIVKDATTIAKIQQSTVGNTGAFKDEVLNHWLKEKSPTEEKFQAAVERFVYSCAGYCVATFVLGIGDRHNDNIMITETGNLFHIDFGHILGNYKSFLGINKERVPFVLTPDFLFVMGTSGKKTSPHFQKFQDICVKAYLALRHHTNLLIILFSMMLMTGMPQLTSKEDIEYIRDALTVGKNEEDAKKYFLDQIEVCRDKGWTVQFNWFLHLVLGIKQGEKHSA

[4] = biological target: T1, Phosphatidylinositol 4,5-bisphosphate 3-kinase catalytic subunit delta isoform (Homo sapiens, UniProt O00329); assay: Inhibition of PI3Kdelta (unknown origin) pre-incubated for 20 mins before phosphatidylinositol 4, 5-bisphosphate substrate addition by kinase-glo plus luminescence assay
T1 sequence (O00329 whole entry): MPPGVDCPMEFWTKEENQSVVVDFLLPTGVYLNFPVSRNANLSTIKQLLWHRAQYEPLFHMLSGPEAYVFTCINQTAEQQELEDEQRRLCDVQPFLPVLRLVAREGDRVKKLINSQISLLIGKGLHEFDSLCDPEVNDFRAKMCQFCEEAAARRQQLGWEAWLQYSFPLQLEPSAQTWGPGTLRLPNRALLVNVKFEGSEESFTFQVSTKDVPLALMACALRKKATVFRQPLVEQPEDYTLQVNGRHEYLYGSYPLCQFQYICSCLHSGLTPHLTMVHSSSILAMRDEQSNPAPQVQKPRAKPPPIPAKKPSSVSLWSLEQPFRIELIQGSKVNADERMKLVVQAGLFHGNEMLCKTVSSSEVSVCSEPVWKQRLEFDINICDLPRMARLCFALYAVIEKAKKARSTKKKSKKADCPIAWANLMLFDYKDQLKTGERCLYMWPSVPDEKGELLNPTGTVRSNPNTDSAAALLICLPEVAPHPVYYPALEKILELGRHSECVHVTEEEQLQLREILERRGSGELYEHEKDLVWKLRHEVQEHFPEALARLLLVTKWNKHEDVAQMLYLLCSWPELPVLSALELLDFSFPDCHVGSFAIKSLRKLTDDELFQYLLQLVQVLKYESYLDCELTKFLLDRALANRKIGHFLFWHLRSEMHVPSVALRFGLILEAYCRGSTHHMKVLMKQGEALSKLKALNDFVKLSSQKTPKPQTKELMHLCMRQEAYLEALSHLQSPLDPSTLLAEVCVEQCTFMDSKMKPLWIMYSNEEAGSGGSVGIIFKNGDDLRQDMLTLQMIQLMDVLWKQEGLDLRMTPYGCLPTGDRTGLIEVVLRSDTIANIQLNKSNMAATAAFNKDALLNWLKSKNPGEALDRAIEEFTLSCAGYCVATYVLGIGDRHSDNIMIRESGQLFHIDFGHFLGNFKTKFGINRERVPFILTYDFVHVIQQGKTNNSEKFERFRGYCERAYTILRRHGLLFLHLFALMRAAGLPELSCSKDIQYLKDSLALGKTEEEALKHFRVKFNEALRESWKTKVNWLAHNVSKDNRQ

[5] = biological target: Phosphatidylinositol 4-phosphate 5-kinase type-1 gamma (Homo sapiens, UniProt O60331); assay: Inhibition of PIP5K1C (unknown origin) using D-myo-phosphatidylinositol 4-phosphate substrate and ATP by ADP-Glo kinase Assay
Sequence of Phosphatidylinositol 4-phosphate 5-kinase type-1 gamma (O60331 whole entry, canonical isoform): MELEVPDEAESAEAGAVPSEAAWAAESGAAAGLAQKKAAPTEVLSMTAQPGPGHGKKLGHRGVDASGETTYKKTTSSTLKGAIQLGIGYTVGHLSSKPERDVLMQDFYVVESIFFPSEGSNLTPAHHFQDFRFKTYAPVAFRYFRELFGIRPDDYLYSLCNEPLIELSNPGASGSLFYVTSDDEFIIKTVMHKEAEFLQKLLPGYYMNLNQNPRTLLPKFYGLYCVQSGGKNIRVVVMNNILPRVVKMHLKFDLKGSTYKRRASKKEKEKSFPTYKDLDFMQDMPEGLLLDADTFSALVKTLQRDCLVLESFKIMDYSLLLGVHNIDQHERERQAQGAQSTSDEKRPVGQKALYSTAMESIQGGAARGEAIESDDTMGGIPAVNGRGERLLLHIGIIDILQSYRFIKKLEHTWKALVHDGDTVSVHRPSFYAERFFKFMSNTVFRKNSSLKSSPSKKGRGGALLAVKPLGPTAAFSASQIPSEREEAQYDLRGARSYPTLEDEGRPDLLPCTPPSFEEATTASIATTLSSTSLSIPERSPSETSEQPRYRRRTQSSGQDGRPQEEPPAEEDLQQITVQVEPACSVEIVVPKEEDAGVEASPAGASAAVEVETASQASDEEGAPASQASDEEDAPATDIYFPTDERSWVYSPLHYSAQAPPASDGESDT

[6] = biological target: Phosphatidylinositol 4,5-bisphosphate 3-kinase catalytic subunit alpha isoform (Homo sapiens, UniProt P42336); assay: Inhibition of PI3Kalpha (unknown origin) pre-incubated for 20 mins before phosphatidylinositol 4, 5-bisphosphate substrate addition by kinase-glo plus luminescence assay
Sequence of Phosphatidylinositol 4,5-bisphosphate 3-kinase catalytic subunit alpha isoform (P42336 whole entry, canonical isoform): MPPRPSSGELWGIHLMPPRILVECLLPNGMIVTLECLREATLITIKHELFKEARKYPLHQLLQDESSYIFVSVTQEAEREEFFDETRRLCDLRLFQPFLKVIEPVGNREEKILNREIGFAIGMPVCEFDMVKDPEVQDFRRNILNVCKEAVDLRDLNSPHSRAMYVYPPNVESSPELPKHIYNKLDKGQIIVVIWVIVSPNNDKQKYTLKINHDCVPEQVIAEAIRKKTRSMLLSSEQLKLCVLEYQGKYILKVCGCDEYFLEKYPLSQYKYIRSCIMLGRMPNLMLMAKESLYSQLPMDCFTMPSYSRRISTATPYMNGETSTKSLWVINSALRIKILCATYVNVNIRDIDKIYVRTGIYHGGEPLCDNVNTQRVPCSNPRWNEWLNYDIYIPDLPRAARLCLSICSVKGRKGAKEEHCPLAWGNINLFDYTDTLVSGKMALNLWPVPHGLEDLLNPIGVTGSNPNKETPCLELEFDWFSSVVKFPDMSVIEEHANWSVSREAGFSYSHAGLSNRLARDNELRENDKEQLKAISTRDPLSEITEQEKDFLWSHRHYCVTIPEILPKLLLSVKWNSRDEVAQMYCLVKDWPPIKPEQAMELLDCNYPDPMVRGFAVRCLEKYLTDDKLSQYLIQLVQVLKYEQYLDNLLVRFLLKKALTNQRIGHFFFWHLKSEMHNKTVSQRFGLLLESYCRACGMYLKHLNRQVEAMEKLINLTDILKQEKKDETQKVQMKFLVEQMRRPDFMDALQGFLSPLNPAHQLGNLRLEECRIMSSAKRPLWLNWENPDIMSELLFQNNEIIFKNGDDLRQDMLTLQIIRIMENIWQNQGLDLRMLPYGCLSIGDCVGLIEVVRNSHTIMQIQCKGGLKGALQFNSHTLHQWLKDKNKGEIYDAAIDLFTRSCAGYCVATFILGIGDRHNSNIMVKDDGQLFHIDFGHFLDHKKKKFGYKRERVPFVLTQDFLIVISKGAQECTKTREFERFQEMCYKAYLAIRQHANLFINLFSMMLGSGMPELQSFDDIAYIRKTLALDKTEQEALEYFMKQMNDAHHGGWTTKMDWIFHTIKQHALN

[7] = biological target: Phosphatidylinositol 4,5-bisphosphate 3-kinase catalytic subunit beta isoform (Homo sapiens, UniProt P42338); assay: Inhibition of PI3Kbeta (unknown origin) pre-incubated for 20 mins before phosphatidylinositol 4, 5-bisphosphate substrate addition by kinase-glo plus luminescence assay

Sequence of Phosphatidylinositol 4-kinase alpha (P42356 whole entry): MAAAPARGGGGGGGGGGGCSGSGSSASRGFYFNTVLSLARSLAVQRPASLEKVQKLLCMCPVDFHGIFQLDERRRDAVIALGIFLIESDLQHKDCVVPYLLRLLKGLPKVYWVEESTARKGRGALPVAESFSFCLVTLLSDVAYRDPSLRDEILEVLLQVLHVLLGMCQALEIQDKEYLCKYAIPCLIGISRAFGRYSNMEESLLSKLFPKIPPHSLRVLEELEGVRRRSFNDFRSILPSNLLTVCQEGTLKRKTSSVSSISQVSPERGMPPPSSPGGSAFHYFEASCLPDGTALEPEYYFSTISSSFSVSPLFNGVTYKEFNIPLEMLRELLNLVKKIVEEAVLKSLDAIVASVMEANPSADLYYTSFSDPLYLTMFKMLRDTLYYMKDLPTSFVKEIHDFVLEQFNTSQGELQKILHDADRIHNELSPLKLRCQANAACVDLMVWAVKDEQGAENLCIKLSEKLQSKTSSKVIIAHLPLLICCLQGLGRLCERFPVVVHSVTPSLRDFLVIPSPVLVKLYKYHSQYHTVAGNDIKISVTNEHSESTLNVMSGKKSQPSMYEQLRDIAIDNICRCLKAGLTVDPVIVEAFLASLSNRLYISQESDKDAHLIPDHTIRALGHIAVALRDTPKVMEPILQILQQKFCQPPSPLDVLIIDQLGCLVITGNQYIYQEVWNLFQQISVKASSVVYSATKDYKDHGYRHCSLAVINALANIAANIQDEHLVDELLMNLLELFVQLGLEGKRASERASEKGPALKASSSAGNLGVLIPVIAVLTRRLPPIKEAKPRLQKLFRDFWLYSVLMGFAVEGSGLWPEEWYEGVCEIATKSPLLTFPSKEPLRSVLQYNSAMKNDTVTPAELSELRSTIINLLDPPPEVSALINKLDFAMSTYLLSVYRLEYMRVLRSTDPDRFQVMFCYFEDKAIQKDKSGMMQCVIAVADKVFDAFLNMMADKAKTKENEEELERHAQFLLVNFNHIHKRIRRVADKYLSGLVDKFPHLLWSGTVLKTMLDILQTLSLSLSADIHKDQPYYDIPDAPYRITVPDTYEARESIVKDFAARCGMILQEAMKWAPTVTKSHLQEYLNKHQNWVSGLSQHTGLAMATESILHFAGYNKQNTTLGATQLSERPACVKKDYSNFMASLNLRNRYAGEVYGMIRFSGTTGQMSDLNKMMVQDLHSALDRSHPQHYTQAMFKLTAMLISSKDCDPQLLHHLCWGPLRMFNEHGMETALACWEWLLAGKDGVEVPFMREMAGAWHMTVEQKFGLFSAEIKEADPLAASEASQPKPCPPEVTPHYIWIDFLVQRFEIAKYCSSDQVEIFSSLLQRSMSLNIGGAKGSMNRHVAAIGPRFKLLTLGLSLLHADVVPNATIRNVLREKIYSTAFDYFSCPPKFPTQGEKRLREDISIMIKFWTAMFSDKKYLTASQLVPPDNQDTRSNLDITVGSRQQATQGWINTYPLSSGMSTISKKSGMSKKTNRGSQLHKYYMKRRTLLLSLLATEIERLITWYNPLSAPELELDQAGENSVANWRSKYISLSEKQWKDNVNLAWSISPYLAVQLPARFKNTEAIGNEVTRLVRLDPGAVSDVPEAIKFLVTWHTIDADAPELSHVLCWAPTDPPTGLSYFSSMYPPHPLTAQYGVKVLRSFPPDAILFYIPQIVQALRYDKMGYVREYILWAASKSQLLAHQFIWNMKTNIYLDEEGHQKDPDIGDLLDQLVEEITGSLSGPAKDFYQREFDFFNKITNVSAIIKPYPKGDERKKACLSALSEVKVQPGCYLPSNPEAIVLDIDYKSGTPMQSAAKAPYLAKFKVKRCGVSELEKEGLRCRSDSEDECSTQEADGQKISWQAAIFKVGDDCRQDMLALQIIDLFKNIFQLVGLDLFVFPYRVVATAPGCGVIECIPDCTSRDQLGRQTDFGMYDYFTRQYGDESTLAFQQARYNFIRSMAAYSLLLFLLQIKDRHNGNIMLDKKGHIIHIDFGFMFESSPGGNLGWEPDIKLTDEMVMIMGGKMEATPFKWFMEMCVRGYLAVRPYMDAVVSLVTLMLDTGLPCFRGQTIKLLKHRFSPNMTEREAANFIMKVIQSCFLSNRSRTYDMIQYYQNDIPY

Row | SMILES | IC50 [1] [nM] | IC50 [2] [nM] | IC50 [3] [µM] | IC50 [4] [µM] | IC50 [5] [µM] | IC50 [6] [µM] | IC50 [7] [µM]
1 | COc1ccc(-c2ccc3nc(N)sc3c2)cn1 | 631 | 1000 | 0.398 | 0.794 | 25.1 |  | 
2 | Nc1nc2ccc(-c3ccncc3)cc2s1 | 2510 | 1000 |  |  |  |  | 
3 | CNCc1ccc(-c2ccc3nc(N)sc3c2)cn1 | 2510 | 3160 | 50.1 | 63.1 | > 100 | 63.1 | 79.4
4 | CC(C)Oc1ccc(-c2ccc3nc(N)sc3c2)cn1 | 79.4 | 1260 | 12.6 | 12.6 | > 100 | 5.01 | 31.6
5 | CCNc1ccc(-c2ccc3nc(N)sc3c2)cn1 | 631 | 1000 | 3.98 | 6.31 | 31.6 | 2 | 12.6
6 | CCN(C)c1ccc(-c2ccc3nc(N)sc3c2)cn1 | 631 | 1580 | 3.98 | 12.6 | > 100 | 6.31 | 39.8
7 | Nc1nc2ccc(-c3ccc(CO)nc3)cc2s1 | 1580 | 794 |  |  | > 100 | 3.16 | 
8 | CS(=O)(=O)c1ccc(-c2ccc3nc(N)sc3c2)cn1 | 25100 | 7940 | 10 | 12.6 | 10 | 158 | 39.8
9 | COCCOc1ccc(-c2ccc3nc(N)sc3c2)cn1 | 316 | 1000 | 3.16 | 6.31 | > 100 | 2.51 | 7.94
10 | CC(C)Oc1cncc(-c2ccc3nc(N)sc3c2)c1 | 1000 | 1000 | 0.251 | 1.26 | 31.6 | 0.501 | 1.26
11 | CS(=O)(=O)c1cncc(-c2ccc3nc(N)sc3c2)c1 | 398 | 3980 | 0.126 | 0.316 | > 100 | 0.251 | 0.251
12 | Nc1nc2ccc(-c3ncccn3)cc2s1 | 15800 | 6310 | 31.6 | 50.1 | 31.6 | > 100 | 
13 | Nc1nc2ccc(-c3cnccn3)cc2s1 | 7940 | 6310 | 3.98 | 7.94 | > 100 | 2 | 6.31
14 | Nc1nc2ccc(-c3ccc(=O)[nH]c3)cc2s1 | 3160 | 3980 | 10 | 31.6 | 39.8 | 25.1 | 50.1
15 | Nc1nc2ccc(-c3cc[nH]c(=O)c3)cc2s1 | 316 | 631 | 1.26 | 10 | 15.8 | 3.98 | 6.31
16 | Cn1nccc1-c1ccc2nc(N)sc2c1 | 12600 | 1000 | 2.51 | 25.1 | > 100 | 12.6 | 31.6
17 | Cn1cc(-c2ccc3nc(N)sc3c2)cn1 | 2510 | 1260 | 2.51 | 7.94 | > 100 | 7.94 | 15.8
18 | CCn1cc(-c2ccc3nc(N)sc3c2)cn1 | 3160 | 1580 | 3.16 | 20 | > 100 | 12.6 | 31.6
19 | CCCn1cc(-c2ccc3nc(N)sc3c2)cn1 | 1580 | 2000 | 1.58 | 12.6 | 25.1 | 12.6 | 12.6
20 | Nc1nc2ccc(-c3cnn(C4CC4)c3)cc2s1 | 7940 | 2000 | 1 | 3.98 | > 100 | 10 | 10
21 | Nc1nc2ccc(-c3cnn(CC4CC4)c3)cc2s1 | 631 | 2000 | 1.26 | 20 |  | 12.6 | 15.8
22 | Nc1nc2ccc(-c3cnn(Cc4ccccc4)c3)cc2s1 | 158 | 794 | 2 | 20 | > 100 | 7.94 | 25.1
23 | COCCOn1ccc(-c2ccc3nc(N)sc3c2)cc1=O | 631 | 10000 | 10 | > 200 | > 100 | 25.1 | > 200

The remaining compounds from weak to strong by IC50 [1], led by results:

Row | IC50 [1] [nM] | IC50 [2] [nM] | IC50 [3] [µM] | IC50 [4] [µM] | IC50 [5] [µM] | IC50 [6] [µM] | IC50 [7] [µM] | SMILES
24 | 25100 | 2510 | 3.98 | 20 | 63.1 | 15.8 |  | CC(C)n1cc(-c2ccc3nc(N)sc3c2)cn1
25 | 15800 | 1580 | 1 | 1 | > 100 | 2 | 3.98 | Nc1nc2ccc(-c3ccc(C(F)(F)F)nc3)cc2s1
26 | 10000 | 2510 | 12.6 | 79.4 | > 100 | 10 |  | Nc1nc2ccc(-c3ccccn3)cc2s1
27 | 3160 | 2510 |  |  | 31.6 | 2 |  | CNC(=O)c1ccc(-c2ccc3nc(N)sc3c2)cn1
28 | 2510 | 1260 | 2.51 | 12.6 | 63.1 | 6.31 | 15.8 | Cn1ccc(-c2ccc3nc(N)sc3c2)n1
29 | 2510 | 501 |  |  | > 100 | 12.6 |  | Nc1nc2ccc(-c3ccccc3)cc2s1
30 | 1580 | 501 | 1.26 | 1.26 | > 100 | 1 | 2.51 | Cc1ccc(-c2ccc3nc(N)sc3c2)cn1
31 | 1580 | 631 |  | 1.26 | 31.6 | 2 |  | Nc1nc2ccc(-c3cccnc3)cc2s1
32 | 1260 | 39800 | 20 | 63.1 | > 100 | 39.8 | 79.4 | CN(C)C(=O)c1ccc(-c2ccc3nc(N)sc3c2)cn1
33 | 1000 | 316 |  | 6.31 | > 100 | 2.51 | 15.8 | COCc1ccc(-c2ccc3nc(N)sc3c2)cn1
34 | 501 | 316 |  | 5.01 | > 100 | 2.51 | 63.1 | Cn1ccc(-c2ccc3nc(N)sc3c2)cc1=O
35 | 316 | 501 | 1.26 | 2 | > 100 | 1.26 | 6.31 | Nc1nc2ccc(-c3ccc(OCCO)nc3)cc2s1
36 | 316 | 316 | 3.16 | 10 | > 100 | 6.31 | 50.1 | CCn1ccc(-c2ccc3nc(N)sc3c2)cc1=O
